Experimental data reported in PMC8027839 (Scientific Reports, 2021).
“Also recorded” adds a separate entry of the source. Where two headings read alike, the source gives them in different places.

How the values were obtained:
[1] = target: T1, SapM (Mycobacterium tuberculosis, UniProt O53361); experiment: biochemical; type: biochemical; conditions: for remaining activity at 100 µM: 0.5 h, read-out: %SA (percentage specific activity of SapM); for inhibition at 100 µM: read-out: inhibition of SapM activity (reduction in SA)
T1 construct: made in house; host or cells: Escherichia coli C41 (DE3)
T1 sequence (O53361 44-299): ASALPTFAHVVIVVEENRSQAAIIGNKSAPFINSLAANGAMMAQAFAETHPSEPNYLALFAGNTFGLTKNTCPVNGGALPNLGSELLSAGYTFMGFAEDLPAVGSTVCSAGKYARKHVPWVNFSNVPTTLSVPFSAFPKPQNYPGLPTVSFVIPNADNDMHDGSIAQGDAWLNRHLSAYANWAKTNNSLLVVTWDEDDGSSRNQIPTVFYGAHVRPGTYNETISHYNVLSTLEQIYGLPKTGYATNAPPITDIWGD

[2] = target: MptpB (Mycobacterium tuberculosis, UniProt I6WXK4); experiment: biochemical; conditions: pH 6
[3] = target: MptpA (Mycobacterium tuberculosis, UniProt P9WIA1); experiment: biochemical; conditions: pH 6
[4] = target: VHR (Homo sapiens, UniProt P51452); experiment: hVHR inhibition, pNPP assay; type: biochemical; conditions: pNPP assay, pH 5.5; read-out: IC50 VHR
[5] = target: T1, SapM; experiment: Microscale thermophoresis of SapM binding
Experimental: Microscale thermophoresis (MST) was used to study the direct binding interaction of SapM with three compounds 1, 2 and 13. SapM was labelled with NTA-647nm dye which attaches to the 6-histidine tag. 100 nM NTA-647 was incubated with 200 nM SapM for 1-hour at 4 °C and then centrifuged at 20,000 rcf for 20 minutes at 4 °C in 20 mM HEPES, 200 mM NaCl pH 7.0. 10 mM compound was diluted to 500 μM in the same buffer. Binding checks were carried out with labelled SapM (5 nM) with and without 250 nM compound with LED power of 20% and a medium MST power in a Monolith Pico instrument and using standard capillaries. Binding analysis was performed with a doubling serial dilution from 250 nM with 16 dilutions and a constant concentration of 5 nM labelled SapM.

[6] = target: T2, PTP1B (Homo sapiens, UniProt P18031); experiment: hPTP1B inhibition, pNPP assay; type: biochemical; conditions: pNPP assay, pH 5.5; read-out: IC50 PTP1B
T2 sequence (P18031 1-435): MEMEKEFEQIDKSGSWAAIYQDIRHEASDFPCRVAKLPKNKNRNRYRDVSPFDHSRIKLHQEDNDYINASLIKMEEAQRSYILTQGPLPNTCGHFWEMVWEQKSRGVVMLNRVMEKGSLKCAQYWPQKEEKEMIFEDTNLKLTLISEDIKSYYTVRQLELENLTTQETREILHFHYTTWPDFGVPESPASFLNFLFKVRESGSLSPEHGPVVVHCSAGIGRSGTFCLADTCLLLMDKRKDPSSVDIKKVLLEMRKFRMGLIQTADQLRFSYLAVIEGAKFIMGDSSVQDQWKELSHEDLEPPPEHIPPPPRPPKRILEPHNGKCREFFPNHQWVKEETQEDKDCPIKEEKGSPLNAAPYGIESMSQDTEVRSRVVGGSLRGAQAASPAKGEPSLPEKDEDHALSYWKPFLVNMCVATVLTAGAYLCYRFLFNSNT

[7] = target: T1, SapM; experiment: Type of inhibition of SapM, Lineweaver-Burk plots; type: biochemical
From the text: To determine the type of inhibition different inhibitor concentrations were selected to yield around 30% and 75% inhibition for each concentration of pNPP. This ensures sufficient signal to obtain accurate data while allowing a significant inhibition effect. Velocity (V) was plotted as a function of pNPP concentration and fit in a Lineweaver–Burk plot (double-reciprocal) using GraphPad Prism 8.41. All assays were done in 96-well microplates and performed in triplicate in at least two independent experiments.

[8] = target: T1, SapM; set-up: method as in PMID 31312014; conditions: previously reported; cited from earlier work
[9] = Compound precipitation in enzyme assays; type: physicochemical; conditions: SapM dose-response assay
[10] = compounds at 100 µM, relative to pNPP DMSO control

Sequence of MptpA (P9WIA1 whole entry): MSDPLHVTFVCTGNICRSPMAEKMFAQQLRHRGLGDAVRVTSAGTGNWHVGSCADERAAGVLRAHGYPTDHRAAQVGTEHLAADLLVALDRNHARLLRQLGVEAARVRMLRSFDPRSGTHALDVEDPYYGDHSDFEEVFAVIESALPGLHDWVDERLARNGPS
Sequence of MptpB (I6WXK4 whole entry, looked up): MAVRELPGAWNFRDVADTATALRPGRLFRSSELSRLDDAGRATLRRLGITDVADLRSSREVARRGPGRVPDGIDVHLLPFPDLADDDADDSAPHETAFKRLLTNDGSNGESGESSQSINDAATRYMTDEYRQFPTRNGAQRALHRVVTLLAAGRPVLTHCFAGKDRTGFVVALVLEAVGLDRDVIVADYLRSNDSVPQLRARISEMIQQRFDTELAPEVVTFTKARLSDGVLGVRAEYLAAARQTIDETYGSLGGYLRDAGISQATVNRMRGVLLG
Sequence of VHR (P51452 whole entry): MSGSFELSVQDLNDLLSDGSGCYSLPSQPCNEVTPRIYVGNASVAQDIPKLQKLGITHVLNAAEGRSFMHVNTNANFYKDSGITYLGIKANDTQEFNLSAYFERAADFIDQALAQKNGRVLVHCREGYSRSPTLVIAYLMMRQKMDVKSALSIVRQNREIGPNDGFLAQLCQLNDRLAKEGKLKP

Molecule: O=C(O)c1cc(O)c(O)c(O)c1 [Compound 29, Gallic acid]
- remaining activity at 100 µM [1, 10]: 30.7 ± 3.6%
- inhibition at 100 µM ([1]; compounds at 100 µM): ~70%
- IC50 ([1]; pNPP assay, dose-response): 63 ± 1.5 µM
- IC50 ([2]; pNPP assay): > 100 µM
- IC50 ([3]; pNPP assay): > 100 µM

Molecule: N#CC(C#N)=C(N)/C(C#N)=C/c1cc(O)c(O)c(O)c1 [Compound 13, Tyrphostin AG 183]
- IC50 [4]: > 100 µM
- effect on SapM enzyme activity ([1]; compounds at 100 µM): completely abolished enzyme activity; also recorded: abolished enzyme activity completely
- %SA (percentage specific activity of SapM) [1, 10]: 0%
- IC50 ([1]; pNPP assay, dose-response): 8.2 ± 1 µM
- binding to SapM by MST [5]: confirmed
- EC50 ([5]; Bivalent fit EC50 (1), MST titration, tighter binding mode): 0.59 µM
- IC50 ([2]; pNPP assay): > 100 µM
- IC50 [6]: > 100 µM
- IC50 ([3]; pNPP assay): 16.7 ± 1 µM
- mechanism of inhibition of SapM [7]: uncompetitive inhibitors

Molecule: N#CC(C#N)=Cc1cc(O)c(O)c(O)c1 [Compound 14, Tyrphostin AG 82]
- remaining activity at 100 µM [1, 10]: 0%
- effect on SapM enzyme activity ([1]; compounds at 100 µM): completely abolished enzyme activity; also recorded: abolished enzyme activity completely
- IC50 ([1]; pNPP assay, dose-response): 14.5 ± 1 µM
- IC50 ([2]; pNPP assay): > 100 µM
- IC50 ([3]; pNPP assay): 23.7 ± 1.1 µM
- mechanism of inhibition of SapM [7]: uncompetitive inhibitors

Molecule: Oc1cc(O)c2c(c1)O[C@H](c1ccc(O)c(O)c1)[C@H](O)[C@H]2c1c(O)cc(O)c2c1O[C@H](c1ccc(O)c(O)c1)[C@H](O)C2 [Compound 31, Procyanidin B2]
- remaining activity at 100 µM [1, 10]: 100 ± 14.5%

Molecule: N#CC(C#N)=C(N)/C(C#N)=C/c1ccc(O)cc1 [Compound 9, Tyrphostin AG 112]
- inhibition of SapM activity (reduction in SA) ([1]; compounds at 100 µM): less than 21%
- %SA (percentage specific activity of SapM) [1, 10]: 88.7 ± 1.7%

Molecule: O=c1cc(-c2ccc(O)cc2)oc2cc(O)cc(O)c12 [Compound 22, Apigenin]
- remaining activity at 100 µM [1, 10]: 103 ± 1.1%

Molecule: O=c1c(-c2ccc(O)cc2)coc2cc(O)cc(O)c12 [Compound 24, Genistein]
- remaining activity at 100 µM [1, 10]: 84.1 ± 6.4%

Molecule: C[C@H](O)[C@H](O)[C@H]1CNc2[nH]c(N)nc(=O)c2N1.Cl.Cl [Compound 5, (6R)-BH4, reference compound]
- %SA (percentage specific activity of SapM) [1, 10]: 33.3 ± 0.3%
- IC50 ([1]; pNPP assay, dose-response): 73.9 ± 1.2 µM

Molecule: CC(C)=CC[C@@H](O)C1=CC(=O)c2c(O)ccc(O)c2C1=O [Compound 21, Shikonin]
- remaining activity at 100 µM [1, 10]: 88.9 ± 4.3%

Molecule: N#CC(C#N)=Cc1ccc([N+](=O)[O-])c(O)c1 [Compound 19, Tyrphostin AG 126]
- %SA (percentage specific activity of SapM) [1, 10]: 99.0 ± 5.5%

Molecule: Oc1cc(O)c2c(c1)O[C@H](c1ccc(O)c(O)c1)[C@H](O)C2 [Compound 32, (−)-Epicatechin]
- remaining activity at 100 µM [1, 10]: 97.9 ± 7.2%

Molecule: O=[N+]([O-])c1ccc(Oc2ccc(Br)cc2)c(C(O)P(=O)(O)O)c1 (centres unmarked) [Compound 6, RWJ-60475]
- %SA (percentage specific activity of SapM) [1]: 46.6 ± 0.9%
- IC50 [1]: 41.9 ± 1.1 µM
- IC50 [2]: > 100 µM
- IC50 [3]: > 100 µM

Molecule: CC(C)(C)c1cc(/C=C(\C#N)C(N)=S)cc(C(C)(C)C)c1O [Compound 8, Tyrphostin AG 879]
- remaining activity at 100 µM [1, 10]: 78.7 ± 6.6%
- inhibition at 100 µM ([1]; compounds at 100 µM): < 21%

Molecule: O.O.O=c1c(O)c(-c2ccc(O)c(O)c2)oc2cc(O)cc(O)c12 [Compound 28, Quercetin dehydrate]
- effect on SapM enzyme activity ([1]; compounds at 100 µM): none or poor activity
- %SA (percentage specific activity of SapM) [1, 10]: 78.9 ± 9.2%

Molecule: N#CC(C#N)=Cc1ccc(O)cc1 [Compound 12, Tyrphostin 8]
- %SA (percentage specific activity of SapM) [1]: 104.2 ± 4.2%
- inhibition of SapM activity (reduction in SA) ([1]; 100 µM): less than 21%

Molecule: O=c1c(-c2ccc(O)cc2)coc2cc(O)ccc12 [Compound 23, Daidzein]
- remaining activity at 100 µM [1, 10]: 108 ± 17.2%

Molecule: N[C@H](C(=O)O)[C@H](O)c1ccc(O)c(O)c1 [Compound 27, L-DOPS]
- remaining activity at 100 µM [1, 10]: 85.9 ± 4.2%

Molecule: Tyrphostin AG 114 [Compound 15]
- %SA (percentage specific activity of SapM) [1, 10]: 48.6 ± 1.1%
- IC50 ([1]; pNPP assay, dose-response): 78.4 ± 2.7 µM

Molecule: O=C1O[C@H]([C@@H](O)CO)C(O)=C1O [L-AC, L-ascorbic acid]
- IC50 [8]: > 200 µM

Molecule: O=c1c(O)c(-c2cc(O)c(O)c(O)c2)oc2cc(O)cc(O)c12 [Compound 26, Myricetin]
- remaining activity at 100 µM [1, 10]: 84 ± 6.2%
- effect on SapM enzyme activity ([1]; compounds at 100 µM): none or poor activity

Molecule: N#C/C(=C\c1ccc(O)c(O)c1)C(N)=O [Compound 16, Tyrphostin AG 99]
- %SA (percentage specific activity of SapM) [1, 10]: 58.3 ± 0.6%

Molecule: N#C/C(=C\c1ccc(O)c(O)c1)C(=O)c1ccc(O)c(O)c1 [Compound 11, Tyrphostin AG 538]
- %SA (percentage specific activity of SapM) [1, 10]: 100.2 ± 0.3%

Molecule: N#Cc1c2nc3ccccc3nc2n2ccc(NC(=O)c3cccs3)cc12 [Compound 4, HI-TOPK-32]
- %SA (percentage specific activity of SapM) [1]: 20.5 ± 3.7%
- concentration at which compound precipitates [9]: > 100 µM

Molecule: Tyrphostin AG 974 [Compound 17]
- %SA (percentage specific activity of SapM) [1, 10]: 71.9 ± 1.4%

Molecule: Cc1cc(O)c2c(c1)C(=O)c1cc(O)cc(O)c1C2=O [Compound 25, Emodin]
- remaining activity at 100 µM [1, 10]: 68.6 ± 7.2%
- inhibition at 100 µM ([1]; compounds at 100 µM): ~30%

Molecule: Oc1cc(O)c2c(c1)O[C@H](c1ccc(O)c(O)c1)[C@@H](O)C2 [Compound 33, (+)-Catechin]
- %SA (percentage specific activity of SapM) [1, 10]: 95.9 ± 12.3%

Molecule: Oc1cc(O)c2c(c1)O[C@@H](c1cc(O)c(O)c(O)c1)[C@H](O)C2 [Compound 30, (−)-Gallocatechin]
- remaining activity at 100 µM [1, 10]: 60.4 ± 6.4%
- inhibition at 100 µM ([1]; compounds at 100 µM): ~40%

Molecule: NC(Cc1cc(O)c(O)cc1O)C(=O)O (racemic) [Compound 20, 6-Hydroxy-DL-DOPA]
- inhibition of SapM activity (reduction in SA) ([1]; compounds at 100 µM): ~ 30%
- %SA (percentage specific activity of SapM) [1, 10]: 71.7 ± 3.4%

Molecule: N#CC(C#N)=Cc1ccc(O)c(O)c1 [Compound 7, Tyrphostin 23]
- remaining activity at 100 µM [1, 10]: 73.5 ± 3.1%
- inhibition at 100 µM ([1]; compounds at 100 µM): 30 to 50%

Molecule: CCCCCCCCCCCC(=O)c1c(O)c(C(=O)CCCCCCCCCCC)c(O)c(C2CC(c3ccc(O)cc3)Oc3cc(O)ccc32)c1O (centres unmarked) [Compound 3, YM-26734]
- %SA (percentage specific activity of SapM) [1]: 0%
- IC50 [1]: 19.8 ± 1.1 µM
- effect on SapM enzyme activity [1]: completely abolished the enzymatic activity
- IC50 [2]: > 100 µM
- IC50 [3]: > 100 µM

Molecule: N#CC(=Cc1ccc2[nH]ccc2c1)C(N)=C(C#N)C#N [Compound 18, Tyrphostin AG 370]
- %SA (percentage specific activity of SapM) [1, 10]: 94.6 ± 3.1%
